Blank lines part the entries; values can stand above or below the molecule they belong to.
Key:
human PRP = assay: Human platelet aggregation inhibition test; assay type: cell-based; details: ADP (1×10^−5 M) induced aggregation
Protocol: Blood collected from healthy human volunteers in aqueous trisodium citrate solution was centrifuged at 150 g for 15 min and the upper layer was recovered to obtain platelet-rich plasma (PRP). The residual blood was centrifuged at 3000 g for 10 min and the supernatant was collected as platelet-poor plasma (PPP). Platelet concentration in the PRP was determined using the Z series Beckman Coulter particle counter (Beckman, Fullerton, Calif.) and adjusted to 250,000 platelets/μL using PPP. 480 μL of PRP was pre-incubated at 37° C. and stirred at 1200 rpm with 10 μL aqueous test compound solution for 1 min prior to induction of aggregation by the addition of 10 μL of aqueous adenosine diphosphate (ADP) solution to adjust the final ADP concentration in the PRP to 1×10^−5 M. The maximal amplitude of aggregation response within 3 min was determined and measured in triplicate using the Chronolog model 490 aggregometer (Chrono-log Corp., Havertown, Pa.). Percent inhibition of aggregation was calculated from the maximum decrease in optical density of the control (addition of water in place of the test compound solution) sample and of the samples containing test compound. The test compound was added to adjust the final concentration to the range 10^−9 to 10^−4 M, and IC50 values were determined by inhibition percentage of aggregation at each concentration.

[1] = molecular target: human prostacyclin (PGI2) receptor (Homo sapiens (Human), UniProt P43119); assay: HTRF assay for direct cAMP measurement; assay type: cell-based; details: recombinant CHO-K1 cells stably transfected with human prostacyclin receptor; cAMP increase
From the text: Compounds were screened for agonists of the human prostacyclin (PGI2) receptor using the HTRF® assay for direct cAMP measurement (Gabriel et al., ASSAY and Drug Development Technologies, 1:291-303, 2003) and recombinant CHO-K1 cells stably transfected with human prostacyclin receptor. CHO-K1 cells were obtained from ATCC® (Manassas, Va.; Catalog # CCL-61). An agonist of the prostacyclin receptor was detected in HTRF® assay for direct cAMP measurement as a compound which increased cAMP concentration. HTRF® assay also was used to determine EC50 values for prostacyclin receptor agonists.
The HTRF® assay kit was purchased from Cisbio-US, Inc. (Bedford, Mass.; Catalog #62AM4PEC). The HTRF® assay supported by the kit is a competitive immunoassay between endogenous cAMP produced by the CHO-K1 cells and tracer cAMP labeled with the dye d2. The tracer binding is visualized by a monoclonal anti-cAMP antibody labeled with Cryptate. The specific signal (i.e., fluorescence resonance energy transfer, FRET) is inversely proportional to the concentration of unlabeled cAMP in the standard or sample.
The fluorescence ratio (665 nm/620 nm) of the standards (0.17 to 712 nM cAMP) included in the assay was calculated and used to generate a cAMP standard curve according to the kit manufacturer's instructions. The fluorescence ratio of the samples (test compound or compound buffer) was calculated and used to deduce respective cAMP concentrations by reference to the cAMP standard curve.
The HTRF® assay was carried out using a two-step protocol essentially according to the kit manufacturer's instructions, in 20 μL total volume per well in 384-well plate format (ProxiPlates; PerkinElmer, Fremont, Calif.; catalog #6008280). To each of the experimental wells was transferred 3000 recombinant CHO-K1 cells in 5 μL assay buffer (phosphate buffered saline containing calcium chloride and magnesium chloride (Invitrogen, Carlsbad, Calif.; catalog #14040) supplemented with IBMX (100 μM) and rolipram (10 μM) (phosphodiesterase inhibitors; Sigma-Aldrich, St. Louis, Mo.; catalog #15879 and catalog # R6520, respectively) and 0.1% bovine serum albumin (BSA) fraction V (Sigma-Aldrich; catalog # A3059)), followed by test compound in 5 μL assay buffer or 5 μL assay buffer. The plate was then incubated at room temperature for 1 h. To each well was then added 5 μL cAMP-d2 conjugate in lysis buffer and 5 μL Cryptate conjugate in lysis buffer according to the kit manufacturer's instructions. The plate was then further incubated at room temperature for 1 h, after which the assay plate was read.
The HTRF® readout was accomplished using a PHERAstar (BMG LABTECH Inc., Durham, N.C.) or EnVision™ (PerkinElmer, Fremont Calif.) microplate reader.

[2] = test system: MCT-induced pulmonary arterial hypertension; assay: Rat monocrotaline (MCT) model of pulmonary arterial hypertension; assay type: in vivo; details: 30 mg/kg oral gavage twice a day for 21 days; 60 mg/kg MCT s.c.; male Wistar rats
Protocol: Male Wistar rats (100-150 g at start of study) (Charles River Laboratories, Wilmington, Mass.) were housed two per cage and maintained in a humidity—(40-60%) and temperature—(68-72° F.) controlled facility on a 12 hr:12 hr light/dark cycle (lights on at 6:30 am) with free access to food (Harlan Teklad, Orange Calif., Rodent Diet 8604) and water. Rats were allowed one week of habituation to the animal facility before testing.
The rat monocrotaline (MCT) model is a standard and well-accepted model of pulmonary arterial hypertension. MCT induces acute pulmonary endothelial damage associated with pulmonary vascular inflammation. […]
Rats were randomly given a single subcutaneous injection of either 60 mg/kg MCT (Sigma, St. Louis, Mo.) or 0.9% saline (sham) and assigned to receive oral administration of 20% hydroxypropyl beta-cyclodextrin (vehicle) or test compound (30 mg/kg; FIGS. 7 and 8). […] Heart chamber weights were measured on Day 22. […] The ratio of right ventricular (RV) weight to left ventricle plus septum (LV+S) weight (this ratio is indicated as “RV/(LV+S)” in FIGS. 7 and 8) was calculated as an index of the hypertrophic response to the induced pulmonary arterial hypertension and, as such, as an index of a test compound's therapeutic efficacy for pulmonary arterial hypertension.

[3] = In vivo metabolism of Compound 22 sodium salt in bile-duct cannulated rats; set-up: species or system Sprague-Dawley rat
Protocol: Three bile-duct cannulated male Sprague-Dawley rats were dosed intravenously (IV) at 2.00 mg/kg. In addition to plasma samples, bile and urine were collected from 0 to 48 hours post-dose.

[4] = Pharmacokinetics in rats after oral administration of Compound 99; assay type: in vivo, Sprague-Dawley rat
Protocol: Blood samples were obtained from 0.100 to 21.0 h post-dose for plasma drug concentration measurements. […] Pharmacokinetic parameters were estimated using non-compartmental pharmacokinetic analysis.

beagle dog hepatocytes = assay: Hepatocyte metabolism of Compound 22 sodium salt, dog; assay type: in vitro ADME; details: 100 μM, up to 240 min
Protocol: (§1) All cryopreserved hepatocytes were thawed and diluted to a desired cell density (1×10^6 cells/mL) according to the supplier's (Xenotech) guidelines using hepatocytes isolation kit. Cell viability was determined by trypan blue exclusion using a hemacytometer. A typical incubation mixture contained human, cynomolgus monkey, beagle dog or Sprague-Dawley rat hepatocytes (200,000 cells/199 μL) in designated wells of a 48-well plate containing incubation medium (Phenol red-free Waymouth's medium). […] One incubation plate was prepared for each time point (i.e., 0, 60, 120, and 240 min) with samples being prepared in duplicate. Incubations were conducted at 37° C., 5% CO2 and 100% relative humidity in an incubator. At each time point, one incubation plate was removed form the incubator, and reaction was terminated by adding 400 μL of acetonitrile containing an internal standard. For the 0 min time point, the reactions were kept on ice before adding Compound 22 sodium salt. After 5 min on ice, the reaction mixture was terminated by adding 400 μL of acetonitrile containing an internal standard. Supernatants were transferred to labeled strip tubes with caps, which were vortexed for 3 min, and then sonicated for an additional 3 min. The samples were centrifuged for 10 min at 4000 rpm and the supernatants were used for metabolite identification. […]

human hepatocytes = assay: Hepatocyte metabolism of Compound 22 sodium salt, human; assay type: in vitro ADME; details: 100 μM, up to 240 min
Protocol: as §1

[5] = test system: Sprague-Dawley rat hepatocytes; assay: Hepatocyte metabolism of Compound 22 sodium salt, rat; assay type: in vitro ADME; details: 100 μM, up to 240 min
Protocol: as §1

[6] = test system: cynomolgus monkey hepatocytes; assay: Hepatocyte metabolism of Compound 22 sodium salt, monkey; assay type: in vitro ADME; details: 100 μM, up to 240 min
Protocol: as §1

[7] = Sprague-Dawley, rat, plasma analyte after 1.25 mg/kg oral dose of Compound 99, male rats

Chain of human prostacyclin (PGI2) receptor (P43119 whole entry): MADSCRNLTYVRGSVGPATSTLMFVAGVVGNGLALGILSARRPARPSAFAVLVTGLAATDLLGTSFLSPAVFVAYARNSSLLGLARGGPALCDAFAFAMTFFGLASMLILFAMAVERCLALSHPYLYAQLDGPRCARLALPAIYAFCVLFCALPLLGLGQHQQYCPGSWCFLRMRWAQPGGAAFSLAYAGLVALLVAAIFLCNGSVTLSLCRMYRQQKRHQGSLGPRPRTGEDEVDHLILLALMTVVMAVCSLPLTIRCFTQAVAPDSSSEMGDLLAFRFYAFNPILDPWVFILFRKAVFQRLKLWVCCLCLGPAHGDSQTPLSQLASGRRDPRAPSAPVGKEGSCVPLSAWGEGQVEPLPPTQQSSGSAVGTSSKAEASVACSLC

Compound: O=C(O)COC[C@H]1CC[C@H](CNC(=O)N(c2ccccc2)c2ccccc2)CC1 [Compound 2, 2-(((1r,4r)-4-((3,3-diphenylureido)methyl)cyclohexyl)methoxy)acetic acid]
IC50 (human PRP): 73 nM

Compound: O=C(O)COC[C@H]1CC[C@H](CNC(=O)N(c2ccccc2)c2cccc(Cl)c2)CC1 [Compound 6, 2-(((1r,4r)-4-((3-(3-chlorophenyl)-3-phenylureido)methyl)cyclohexyl)methoxy)acetic acid]
EC50 [1]: 61.1 nM

Compound: O=C(O)COC[C@H]1CC[C@H](COC(=O)N(c2ccccc2)c2cccc(F)c2)CC1 [Compound 23, 2-(((1r,4r)-4-(((3-fluorophenyl)(phenyl)carbamoyloxy)methyl)cyclohexyl)methoxy)acetic acid]
hypertrophic response, RV/(LV+S) [2]: inhibited the hypertrophic response

Compound: O=C(O)COC[C@H]1CC[C@@H](COC(=O)N(c2ccccc2)c2cccc(Cl)c2)CC1 [Compound 30, 2-(((1s,4s)-4-(((3-chlorophenyl)(phenyl)carbamoyloxy)methyl)cyclohexyl)methoxy)acetic acid]
IC50 (human PRP): 210 nM

Compound: Cc1ccc(N(C(=O)OC[C@H]2CC[C@H](COCC(=O)O)CC2)c2ccccc2)s1 [Compound 50, 2-(((1r,4r)-4-(((5-methylthiophen-2-yl)(phenyl)carbamoyloxy)methyl)cyclohexyl)methoxy)acetic acid]
IC50 (human PRP): 12.6 nM

Compound: Cc1ccc(N(C(=O)OC[C@H]2CC[C@H](COCC(=O)O)CC2)c2cccc(F)c2)s1 [Compound 71, 2-(((1r,4r)-4-(((3-fluorophenyl)(5-methylthiophen-2-yl)carbamoyloxy)methyl)cyclohexyl)methoxy)acetic acid]
EC50 [1]: 19.1 nM

Compound: CCOc1ccc(N(C(=O)OC[C@H]2CC[C@H](COCC(=O)O)CC2)c2ccccc2)cc1 [Compound 88, 2-(((1r,4r)-4-(((4-ethoxyphenyl)(phenyl)carbamoyloxy)methyl)cyclohexyl)methoxy)acetic acid]
IC50 (human PRP): 70 nM

Compound: O=C(O)CNC(=O)COC[C@H]1CC[C@H](COC(=O)N(c2ccccc2)c2ccc(Cl)cc2)CC1 [Compound 100, 2-(2-(((1r,4r)-4-(((4-chlorophenyl)(phenyl)carbamoyloxy)methyl)cyclohexyl)methoxy)acetamido) acetic acid]
metabolite of Compound 22 sodium salt in dog hepatocytes (beagle dog hepatocytes): only detected in human and monkey | metabolite of Compound 22 sodium salt in human hepatocytes (human hepatocytes): detected | metabolite of Compound 22 sodium salt in rat hepatocytes [5]: only detected in human and monkey | metabolite of Compound 22 sodium salt in monkey hepatocytes [6]: detected

Other lines, results leading:

EC50 [1]: 56.9 nM
Compound: O=C(O)COC[C@H]1CC[C@@H](COC(=O)N(c2ccccc2)c2ccc(F)cc2)CC1 [Compound 35, 2-(((1s,4s)-4-(((4-fluorophenyl)(phenyl)carbamoyloxy)methyl)cyclohexyl)methoxy)acetic acid]

EC50 [1]: 5.14 nM
Compound: COc1ccc(N(C(=O)OC[C@H]2CC[C@H](COCC(=O)O)CC2)c2cccc(F)c2)cc1 [Compound 55, 2-(((1r,4r)-4-(((3-fluorophenyl)(4-methoxyphenyl)carbamoyloxy)methyl)cyclohexyl)methoxy)acetic acid]

metabolite in bile ([3]; 2.00 mg/kg IV of Compound 22 sodium salt, bile 0 to 48 hours): observed in bile | metabolite in urine ([3]; 2.00 mg/kg IV of Compound 22 sodium salt, urine 0 to 48 hours): not observed in urine | metabolite of Compound 22 sodium salt in rats ([3]; 2.00 mg/kg IV, male rats): major metabolite | conversion to parent ([4]; 1.25 mg/kg oral dose in rats): converted to Compound 22 | exposure ([4]; 1.25 mg/kg oral dose in rats): minimal exposure | AUC(0-t) [4, 7]: 11.9 ng·h/mL | Cmax at 3.33 h [4, 7]: 1.93 ng/mL | half-life ([4]; Sprague-Dawley, rat, plasma analyte after 1.25 mg/kg oral dose of Compound 99, male rats, read-out: terminal phase half-life (T1/2) (converted)): 3.24 h | Tmax ([4]; male, Sprague-Dawley, rat, plasma, 10 mg/kg, after oral dose of the taurine conjugate of Compound 22): 3 h | time of Cmax ([4]; plasma analyte after 1.25 mg/kg oral dose of Compound 99, male rats): 3.33 h | metabolite of Compound 22 sodium salt in dog hepatocytes (beagle dog hepatocytes): detected | metabolite of Compound 22 sodium salt in human hepatocytes (human hepatocytes): detected | metabolite of Compound 22 sodium salt in rat hepatocytes [5]: detected | metabolite of Compound 22 sodium salt in monkey hepatocytes [6]: detected
Compound: O=C(COC[C@H]1CC[C@H](COC(=O)N(c2ccccc2)c2ccc(Cl)cc2)CC1)NCCS(=O)(=O)O [Compound 99, 2-(2-(((1r,4r)-4-(((4-chlorophenyl)(phenyl)carbamoyloxy)methyl)cyclohexyl)methoxy)acetamido) ethanesulfonic acid]

— US10668033B2, “Modulators of the prostacyclin (PGI2) receptor useful for the treatment of disorders related thereto” (Arena Pharmaceuticals, Inc., priority 2008, dated 2020)
